The results in this text go back to US20260226041A1 (ARIGENX THERAPEUTICS CO., LTD., priority 2023, published 2026).

Counter-ions that a name gives are not always drawn. Like-named read-outs stand apart in the source and are kept apart here.

Broadly, the EC50 is the concentration at which the effect is half-maximal.

In one data set the target is mouse AHR (Mus musculus, UniProt P30561). The experiment in a line: Mouse AHR agonist luciferase assay (6x XRE Nano-luc reporter in Hepa1-6 cells).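 Note: stable Hepa1-6 reporter line, 4–24 h exposure, 11-point serial dilution, Nano-Glo luminescence as fold over medium-only baseline, EC50 from four-parameter fit of activation fold.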
mouse AHR, sequence (P30561 10-805 limits assumed): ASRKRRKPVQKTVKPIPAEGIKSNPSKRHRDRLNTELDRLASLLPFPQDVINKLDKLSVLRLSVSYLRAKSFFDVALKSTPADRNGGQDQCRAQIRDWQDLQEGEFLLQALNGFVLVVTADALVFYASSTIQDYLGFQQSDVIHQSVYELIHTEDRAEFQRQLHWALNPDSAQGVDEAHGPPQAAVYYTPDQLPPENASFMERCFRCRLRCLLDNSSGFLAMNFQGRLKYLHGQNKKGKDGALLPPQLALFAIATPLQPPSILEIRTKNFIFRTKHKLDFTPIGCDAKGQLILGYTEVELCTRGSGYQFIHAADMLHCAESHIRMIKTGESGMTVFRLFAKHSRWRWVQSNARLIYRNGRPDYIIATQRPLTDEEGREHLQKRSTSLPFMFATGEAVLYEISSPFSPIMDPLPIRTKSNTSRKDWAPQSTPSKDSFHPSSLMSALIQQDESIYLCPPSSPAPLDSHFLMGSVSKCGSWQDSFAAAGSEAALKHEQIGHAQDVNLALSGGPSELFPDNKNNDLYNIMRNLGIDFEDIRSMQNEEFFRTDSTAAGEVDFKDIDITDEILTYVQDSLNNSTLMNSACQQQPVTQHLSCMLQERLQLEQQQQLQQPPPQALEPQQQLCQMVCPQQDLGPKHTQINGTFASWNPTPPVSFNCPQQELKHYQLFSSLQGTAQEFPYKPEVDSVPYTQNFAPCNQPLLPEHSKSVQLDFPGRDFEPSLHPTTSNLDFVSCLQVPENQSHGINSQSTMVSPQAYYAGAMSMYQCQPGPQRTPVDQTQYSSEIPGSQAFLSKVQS
mouse AHR, sequence (P53762 whole entry partner): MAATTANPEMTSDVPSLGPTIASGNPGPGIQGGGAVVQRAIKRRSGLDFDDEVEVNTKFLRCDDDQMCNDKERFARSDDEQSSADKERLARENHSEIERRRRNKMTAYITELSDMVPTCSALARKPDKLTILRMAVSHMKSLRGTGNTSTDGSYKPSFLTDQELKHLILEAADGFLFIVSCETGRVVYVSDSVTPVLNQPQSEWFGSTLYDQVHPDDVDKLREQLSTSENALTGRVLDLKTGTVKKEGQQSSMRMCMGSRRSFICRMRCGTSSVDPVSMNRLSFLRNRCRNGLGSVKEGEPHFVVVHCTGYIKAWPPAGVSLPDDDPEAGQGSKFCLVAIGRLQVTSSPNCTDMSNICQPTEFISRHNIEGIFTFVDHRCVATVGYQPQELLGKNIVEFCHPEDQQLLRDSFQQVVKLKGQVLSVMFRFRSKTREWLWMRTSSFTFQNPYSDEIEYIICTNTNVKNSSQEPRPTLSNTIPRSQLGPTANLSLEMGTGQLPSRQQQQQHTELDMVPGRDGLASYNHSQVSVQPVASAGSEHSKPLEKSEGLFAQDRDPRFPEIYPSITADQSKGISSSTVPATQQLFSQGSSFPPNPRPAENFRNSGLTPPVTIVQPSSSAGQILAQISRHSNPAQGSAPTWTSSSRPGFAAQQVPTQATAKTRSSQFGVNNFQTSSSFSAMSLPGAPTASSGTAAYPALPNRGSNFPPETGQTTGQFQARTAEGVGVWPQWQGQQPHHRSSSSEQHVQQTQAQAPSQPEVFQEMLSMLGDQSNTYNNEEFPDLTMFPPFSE
The target of the next data set is T1, human AHR (Homo sapiens, UniProt P35869).
T1 sequence (P35869 11-848): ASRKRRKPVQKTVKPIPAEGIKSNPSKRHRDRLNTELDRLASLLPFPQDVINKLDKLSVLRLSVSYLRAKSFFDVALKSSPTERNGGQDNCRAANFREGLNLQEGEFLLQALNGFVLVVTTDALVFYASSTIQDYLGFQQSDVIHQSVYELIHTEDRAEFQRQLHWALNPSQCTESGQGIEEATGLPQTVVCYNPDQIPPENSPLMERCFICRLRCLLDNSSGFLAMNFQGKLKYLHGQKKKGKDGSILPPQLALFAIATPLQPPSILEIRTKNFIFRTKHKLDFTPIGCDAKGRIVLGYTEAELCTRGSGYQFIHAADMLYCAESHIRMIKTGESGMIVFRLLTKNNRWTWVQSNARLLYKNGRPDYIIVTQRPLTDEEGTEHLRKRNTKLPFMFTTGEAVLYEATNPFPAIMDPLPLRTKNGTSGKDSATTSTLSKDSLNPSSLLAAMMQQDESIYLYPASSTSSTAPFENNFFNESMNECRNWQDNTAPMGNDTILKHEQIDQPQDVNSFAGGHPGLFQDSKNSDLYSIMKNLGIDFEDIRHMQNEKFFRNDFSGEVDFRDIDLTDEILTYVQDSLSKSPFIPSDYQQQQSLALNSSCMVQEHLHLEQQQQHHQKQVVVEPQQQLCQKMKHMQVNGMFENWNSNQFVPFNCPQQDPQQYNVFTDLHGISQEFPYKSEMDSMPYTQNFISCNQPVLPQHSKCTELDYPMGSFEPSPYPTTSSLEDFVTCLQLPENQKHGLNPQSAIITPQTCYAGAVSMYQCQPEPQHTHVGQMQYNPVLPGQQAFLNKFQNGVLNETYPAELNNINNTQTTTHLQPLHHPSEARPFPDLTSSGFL
The data set is described as follows: Human AHR agonist luciferase assay (CYP1A1 promoter Nano-luc reporter in HepG2 cells).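 Note: stably transfected HepG2 clone, DRE-containing 1200 bp promoter region driving Nano-luc, treated 4 to 24 h with 11-point dilutions in tryptophan-free medium, medium-only wells as baseline.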

Another data set concerns the target T2, rat AHR (Rattus norvegicus, UniProt P41738).
T2 construct: The reporter gene was introduced into a genome of rat hepatoma H-4-II-E cells via lentiviral infection; endogenous in cells; host or cells: H-4-II-E (rat hepatoma) with a lentivirally integrated 6x XRE Nano-luc reporter
T2 sequence (P41738 10-853): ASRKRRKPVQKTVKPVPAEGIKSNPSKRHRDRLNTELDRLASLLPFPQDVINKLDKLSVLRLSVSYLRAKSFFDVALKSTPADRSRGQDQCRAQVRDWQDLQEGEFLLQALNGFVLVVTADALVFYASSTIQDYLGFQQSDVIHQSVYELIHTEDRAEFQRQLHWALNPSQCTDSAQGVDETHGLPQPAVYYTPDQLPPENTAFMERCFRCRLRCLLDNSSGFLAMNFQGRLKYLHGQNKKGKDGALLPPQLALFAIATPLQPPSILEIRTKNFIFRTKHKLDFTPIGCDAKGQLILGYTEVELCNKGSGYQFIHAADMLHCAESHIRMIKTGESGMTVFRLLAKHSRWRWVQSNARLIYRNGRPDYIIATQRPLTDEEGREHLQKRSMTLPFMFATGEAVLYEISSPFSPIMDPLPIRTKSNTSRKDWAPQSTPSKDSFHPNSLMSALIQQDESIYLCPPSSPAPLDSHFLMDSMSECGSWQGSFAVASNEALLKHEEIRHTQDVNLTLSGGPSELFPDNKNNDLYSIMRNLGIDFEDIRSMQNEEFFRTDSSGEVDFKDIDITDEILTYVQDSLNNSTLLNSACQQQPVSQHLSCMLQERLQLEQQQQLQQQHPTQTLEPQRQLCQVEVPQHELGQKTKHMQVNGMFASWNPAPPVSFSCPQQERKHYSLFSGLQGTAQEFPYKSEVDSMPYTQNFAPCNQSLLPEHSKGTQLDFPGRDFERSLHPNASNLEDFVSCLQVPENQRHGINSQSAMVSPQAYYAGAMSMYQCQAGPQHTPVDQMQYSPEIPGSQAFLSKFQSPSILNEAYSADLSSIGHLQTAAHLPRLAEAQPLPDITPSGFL
The experiment in a line: Rat AHR agonist luciferase assay (6x XRE Nano-luc reporter in H-4-II-E cells). It is filed as cell-based. The settings on record: AHR activation, rat hepatoma H-4-II-E reporter cells, incubated 4 to 24 hours; read-out: H4IIE EC50. The text has this:
A lentivirus containing the reporter gene was generated by co-transfecting the transfer plasmid with packaging plasmids into 293T cells using conventional transfection methods in the art, followed by purification. The reporter gene was introduced into a genome of rat hepatoma H-4-II-E cells via lentiviral infection, and cells stably expressing the reporter gene were selected with puromycin for the rat AHR agonist luciferase assay.

The mark [1] stands for this setting: read-out: HepG2 EC50, AHR activation, human hepatoma HepG2 reporter cells, incubated 4 to 24 hours.

Procedure for human AHR: To detect AHR activation, a reporter gene plasmid was constructed by placing the gene sequence from −1200 bp to 0 bp upstream of CYP1A1 in front of a Nano-luc luciferase reporter gene according to conventional construction methods of reporter gene plasmids in the art. The reporter gene plasmid was transfected into human hepatoma HepG2 cells by a conventional liposome transfection method in the art, and stably expressing cells were selected by puromycin. The selected cells were diluted to a concentration of 5 cells/mL and seeded into a 96-well plate at 100 μL/well, and single clones were obtained after growth. A single clone with normal morphology, normal growth, and the highest induction signal was selected for the human AHR agonist luciferase assay.
On day one, the HepG2 monoclonal cell line stably expressing reporter gene was counted and seeded into a white opaque 96-well plate at a density of 1×10^4 cells per well −8×10^4 cells per well using 100 μL of complete medium without tryptophan and phenol red (minimal essential medium (MEM) without tryptophan and phenol red, 10% (v/v) fetal bovine serum, 1× non-essential amino acids, 1× sodium pyruvate, and 1× GlutaMax). The cells were cultured in an incubator maintained at 37° C. with 5% (v/v) CO2 for 24 hours.
Test compounds were prepared as 10 mmol/L stock solutions in dimethyl sulfoxide (DMSO) and stored at 4° C. protected from light. Before treatment, the compound stock solutions, positive control compounds (e.g., dioxin, 2-(1H-indole-3-carbonyl)thiazole-4-carboxylic acid methyl ester (ITE), or kynurenine), and a negative control compound (DMSO) were subjected to preliminary dilution (determined based on pre-experiments) with the complete medium without tryptophan and phenol red, followed by 3- to 20-fold serial dilutions to 11 concentration points to obtain 2× dilution solutions. When treating the cells, 50 μL of medium was first aspirated from the 96-well plate containing the seeded cells, and then 50 μL of the serially diluted 2× dilution solution was added. Each compound was tested in duplicate, and each duplicate experiment included a well with a concentration of 0 (i.e., containing only the medium) to determine the baseline. The reporter cells were returned to the incubator and incubated for 4 to 24 hours after treatment.
After treatment, 100 μL/well of Nano-Glo Luciferase Assay Reagent was added to the 96-well plate, and the relative light unit (RLU) of each well was measured. The RLU values for the wells with the concentration of 0 on the 96-well plates were averaged to calculate the baseline Ave RLU^Vehicle. The activity of AHR induced by the test compounds at different concentrations was calculated according to Formula (1) based on the ratio of RLU^Test Cmpd from the experimental groups to the baseline Ave RLU^Vehicle, to determine the activation fold.
The activation fold and the corresponding compound concentration were fitted using GraphPad Prism 9 with [Agonist] vs. response—variable slope (four parameters) to calculate the EC50 of the compound for AHR activation.
Procedure for mouse AHR: The reporter gene plasmid was transfected into mouse hepatoma Hepa1-6 cells by a conventional liposome transfection method in the art, and stably expressing cells were selected by puromycin for the mouse AHR agonist luciferase assay.
On day one, the stably expressing reporter gene Hepa1-6 cell line was counted and seeded into a white opaque 96-well plate at a density of 1×10^4 cells per well −8×10^4 cells per well using 100 μL of phenol red-free Dulbecco's Modified Eagle Medium (DMEM) (DMEM without phenol red, 10% fetal bovine serum). The cells were cultured in an incubator maintained at 37° C. with 5% CO2 for 24 hours.
Test compounds were prepared as 10 mM stock solutions in DMSO and stored at 4° C. protected from light. Before treatment, the compound stock solutions, positive control compounds (e.g., dioxin, ITE, or kynurenine), and a negative control compound (DMSO) were subjected to preliminary dilution (determined based on pre-experiments) with complete medium without tryptophan and phenol red, followed by 3- to 20-fold serial dilutions to 11 concentration points to obtain 10× dilution solutions. When treating the cells, 10 μL of medium was first aspirated from the 96-well plate containing the seeded cells, and then 10 μL of the serially diluted 10× dilution solution was added. Each compound was tested in duplicate, and each duplicate experiment included a well with a concentration of 0 (i.e., containing only medium) to determine the baseline. The reporter cells were returned to the incubator and incubated for 4 to 24 hours after treatment.
After treatment, 100 μL/well of Nano-Glo Luciferase Assay Reagent was added to the 96-well plate, and the RLU of each well was measured. The RLU values for the wells with the concentration of 0 on the 96-well plates were averaged to calculate the baseline Ave RLU^Vehicle The activity of AHR induced by the test compounds at different concentrations was calculated according to Formula (1) based on the ratio of RLU^Test Cmpd from the experimental groups to the baseline Ave RLU^Vehicle, to determine the activation fold.
The activation fold and the corresponding compound concentration were fitted using GraphPad Prism 9 with [Agonist] vs. response—variable slope (four parameters) to determine the EC50 of the compound for AHR activation.

On to `O=C(c1nc(C2CCOC2=O)cs1)c1c[nH]c2ccccc12` (single isomer, unassigned) [Compound 1-isomer-A], for which the EC50 on mouse AHR is less than 100 nM; at human AHR it was less than 500 nM; at rat AHR, not above 10 nM.
With `O=C(c1nc(C2CCOC2=O)cs1)c1c[nH]c2ccccc12` (single isomer, unassigned) [Compound 1-isomer-B], the EC50 at mouse AHR (read-out: Hepa 1-6 EC50, AHR activation, mouse hepatoma Hepa1-6 reporter cells, incubated 4 to 24 hours) was less than 100 nM; at rat AHR it was not above 10 nM.
Take `O=C(c1nc(C2CCOC2=O)cs1)c1c[nH]c2ccccc12` (centres unmarked) [Compound 1, 3-[2-(1H-indole-3-carbonyl)-1,3-thiazol-4-yl]tetrahydrofuran-2-one]: the values for the EC50 at mouse AHR, at human AHR and on rat AHR were less than 100 nM, less than 500 nM and not above 10 nM, respectively.
At human AHR, `O=C(c1nc(C2CCOC2=O)cs1)c1c[nH]c2cc(Cl)ccc12` (centres unmarked) [Compound 1-7] returned a concentration for a half-maximal effect (EC50) of less than 500 nM.
Same read-out and setting: in the case of `Cc1ccc2c(C(=O)c3nc(C4CCOC4=O)cs3)c[nH]c2c1` (centres unmarked) [Compound 1-8] it was less than 500 nM; in that of `N#Cc1ccc2c(C(=O)c3nc(C4CCOC4=O)cs3)c[nH]c2c1` (centres unmarked) [Compound 1-9], less than 500 nM.
With `O=C(c1nc(C2(O)CCOC2=O)cs1)c1c[nH]c2ccc(F)cc12` (centres unmarked) [Compound 2-4], the EC50 on mouse AHR was less than 100 nM; at human AHR, less than 500 nM.
On to `COc1ccc2[nH]cc(C(=O)c3nc(C4(O)CCOC4=O)cs3)c2c1` (centres unmarked) [Compound 2-5], for which the EC50 is less than 100 nM at mouse AHR and less than 500 nM on human AHR.
For `O=C(c1nc(C2(F)CCOC2=O)cs1)c1c[nH]c2cc(F)ccc12` (centres unmarked) [Compound 3-2], in that order: less than 100 nM and less than 500 nM.
The matching figures for `COc1ccc2c(C(=O)c3nc(C4(F)CCOC4=O)cs3)c[nH]c2c1` (centres unmarked) [Compound 3-3]: less than 100 nM and less than 500 nM.
The matching figures for `O=C(c1nc(C2(F)CCOC2=O)cs1)c1c[nH]c2ccc(F)cc12` (centres unmarked) [Compound 3-4]: 100 to 2000 nM and less than 500 nM.
On to `COc1ccc2[nH]cc(C(=O)c3nc(C4(F)CCOC4=O)cs3)c2c1` (centres unmarked) [Compound 3-5], for which the EC50 on human AHR was in the range of 500 to 2000 nM.
With `O=C(c1nc(C2(F)CCOC2=O)cs1)c1c[nH]c2ccccc12` (centres unmarked) [Compound 3], the EC50 was less than 100 nM on mouse AHR and less than 500 nM at human AHR.
`COc1ccc2c(C(=O)c3nc(C4(Cl)CCOC4=O)cs3)c[nH]c2c1` (centres unmarked) [Compound 4-3] yielded an EC50 at human AHR of less than 500 nM.
Same read-out and setting: the result for `O=C(c1nc(C2(Cl)CCOC2=O)cs1)c1c[nH]c2ccc(F)cc12` (centres unmarked) [Compound 4-4] reads less than 500 nM.
Regarding `O=C1OCC=C1c1csc(C(=O)c2c[nH]c3ccccc23)n1` [Compound 5], the results for the EC50 on mouse AHR and on human AHR were less than 100 nM and less than 500 nM, respectively.
Take `O=C1OCC(O)=C1c1csc(C(=O)c2c[nH]c3ccccc23)n1` [Compound 6]: the concentration giving a half-maximal response (EC50) at human AHR was in the range of 500 to 2000 nM.
Take `CN1CCC(c2csc(C(=O)c3c[nH]c4cc(F)ccc34)n2)C1=O` (centres unmarked) [Compound 7-2]: the values for the EC50 at human AHR and at rat AHR were less than 500 nM and 2000 to 100000 nM, respectively.
The matching figures for `COc1ccc2c(C(=O)c3nc(C4CCN(C)C4=O)cs3)c[nH]c2c1` (centres unmarked) [Compound 7-3]: less than 500 nM and 2000 to 100000 nM.
For `CN1CCC(c2csc(C(=O)c3c[nH]c4ccc(F)cc34)n2)C1=O` (centres unmarked) [Compound 7-4], in that order: less than 500 nM and 2000 to 100000 nM.
Regarding `CN1CCC(c2csc(C(=O)c3c[nH]c4ccccc34)n2)C1=O` (centres unmarked) [Compound 7], the results for the EC50 on human AHR and at rat AHR were less than 500 nM and 2000 to 100000 nM, respectively.
With `CC1CC(c2csc(C(=O)c3c[nH]c4cc(F)ccc34)n2)C(=O)O1` (centres unmarked) [Compound 8-2], the values for the EC50 at mouse AHR and at human AHR were less than 100 nM and less than 500 nM, respectively.
Consider `COc1ccc2c(C(=O)c3nc(C4CC(C)OC4=O)cs3)c[nH]c2c1` (centres unmarked) [Compound 8-3], for which the EC50 is less than 100 nM at mouse AHR and less than 500 nM at human AHR.
For `CC1CC(c2csc(C(=O)c3c[nH]c4ccc(F)cc34)n2)C(=O)O1` (centres unmarked) [Compound 8-4], in that order: less than 100 nM and less than 500 nM.
In the case of `COc1ccc2[nH]cc(C(=O)c3nc(C4CC(C)OC4=O)cs3)c2c1` (centres unmarked) [Compound 8-5], the EC50 on mouse AHR is less than 100 nM; on human AHR, less than 500 nM.
Take `CC1CC(c2csc(C(=O)c3c[nH]c4cc5c(cc34)OCO5)n2)C(=O)O1` (centres unmarked) [Compound 8-6]: the concentration giving a half-maximal response (EC50) was less than 100 nM on mouse AHR and less than 500 nM on human AHR.
For `C[C@@H]1C[C@H](c2csc(C(=O)c3c[nH]c4ccccc34)n2)C(=O)O1` [Compound 8-cis-1], on human AHR (setting [1]), the EC50 is less than 500 nM.
As for `C[C@H]1C[C@@H](c2csc(C(=O)c3c[nH]c4ccccc34)n2)C(=O)O1` [Compound 8-cis-2], on human AHR (setting [1]), the half-maximal effective concentration (EC50) is less than 500 nM.
The same measure, in the same setting: the result for `C[C@@H]1C[C@@H](c2csc(C(=O)c3c[nH]c4ccccc34)n2)C(=O)O1` [Compound 8-trans-1] reads less than 500 nM; that for `C[C@H]1C[C@H](c2csc(C(=O)c3c[nH]c4ccccc34)n2)C(=O)O1` [Compound 8-trans-2], less than 500 nM.
On to `CC(C)[C@H](N)C(=O)n1cc(C(=O)c2nc(C3CCOC3=O)cs2)c2ccccc21` (stereo partly drawn) [Compound 9, 3-[2-({1-[(2S)-2-amino-3-methylbutanoyl]indol-3-yl}carbonyl)-1,3-thiazol-4-yl]tetrahydrofuran-2-one hydrochloride], for which the EC50 was 100 to 2000 nM at mouse AHR and 500 to 2000 nM on human AHR.
As to `O=C(c1nc(C2CCOC2=O)cs1)c1cn(CO)c2ccccc12` (centres unmarked) [Compound 10, 3-{2-[1-(hydroxymethyl)indole-3-carbonyl]thiazol-4-yl}tetrahydrofuran-2-one], the EC50 at mouse AHR was in the range of 100 to 2000 nM; at human AHR, 500 to 2000 nM.
The matching figures for `O=C(c1nc(C2CCOC2=O)cs1)c1cn(P(=O)(O)O)c2ccccc12` (centres unmarked) [Compound 11]: 100 to 2000 nM and 500 to 2000 nM.
The matching figures for `O=C(c1nc(C2CCOC2=O)cs1)c1cn(COP(=O)(O)O)c2ccccc12` (centres unmarked) [Compound 12, {3-[4-(2-oxotetrahydrofuran-3-yl)thiazole-2-carbonyl]-1H-indol-1-yl}methylphosphoric acid]: 100 to 2000 nM and 500 to 2000 nM.
For `CC(C)[C@H](N)C(=O)OCn1cc(C(=O)c2nc(C3CCOC3=O)cs2)c2ccccc21` (some centres unmarked) [Compound 13, hydrochloride], in that order: 100 to 2000 nM and 500 to 2000 nM.
As to `COCCOCCOCCOCC(=O)OCn1cc(C(=O)c2nc(C3CCOC3=O)cs2)c2ccccc21` (centres unmarked) [Compound 14, 3,6,9,12-tetraoxatridecanoic acid {3-[4-(2-oxotetrahydrofuran-3-yl)thiazole-2-carbonyl]-1H-indol-1-yl}methyl ester], the EC50 at mouse AHR lay in the range of 100 to 2000 nM; at human AHR, 500 to 2000 nM.
The matching figures for `COCCOCCOCCOCC(=O)n1cc(C(=O)c2nc(C3CCOC3=O)cs2)c2ccccc21` (centres unmarked) [Compound 15, 3-{2-[1-(3,6,9,12-tetraoxatridecanoyl)-1H-indole-3-carbonyl]thiazol-4-yl}dihydrofuran-2(3H)-one]: 100 to 2000 nM and 500 to 2000 nM.
